Values of other authors, collected in US6063383A, “Pharmaceutical suppository composites for fever and influenza and method of producing the composites” (priority 1999, dated 2000).

Test system: small rats
Settings: rat, in vivo

Question: With `NCCS(=O)(=O)O` [taurine] as the molecule, how does the “spontaneous and pedaling activities” value read?
Answer: The value was “can reduce the combined action of spontaneous activities and pedaling activities”.
